Columns and labels:
Assay type in all cases: cell-based
[1] = tested on: AMPK; test: Phosphorylation of AMPK (Thr-172 of α subunit) in L6 myotube cells, western blot; conditions: 2 hours, damulin A 10, 30, 60 μg/ml, damulin B 1, 5, 10 μg/ml, compared to control group
Text: The activity of AMPK may be determined by determining whether or not the phosphorylation of a threonine amino acid residue at position 172 was increased.

[2] = tested on: ACC (acetyl-CoA carboxylase); test: Phosphorylation of ACC (Ser-79) in L6 myotube cells, western blot; conditions: 2 hours, damulin A 10, 30, 60 μg/ml, damulin B 1, 5, 10 μg/ml, compared to control group
Text: ACC is an important enzyme for regulating lipid metabolism in liver and muscle tissues. This enzyme carboxylates acetyl-CoA to produce malonyl-CoA. Malonyl-CoA is the most important factor for regulating β-oxidation of fatty acid within mitochondria. When the concentration of malonyl-CoA increases, the activity of CPT-1 (carnitine palmitoyl-CoA transferase) in mitochondrial membrane is reduced, thereby inhibiting β-oxidation of fatty acid, and on the other hand, when the concentration of malonyl-CoA decreases, β-oxidation is increased, accelerating the reduction of body fat. ACC is a subordinate target protein in AMPK activity, and is phosphorylated by the activation of AMPK. […]
Accordingly, differentiated L6 myotube cells were treated with individually separated damulin A with different concentrations (10, 30, and 60 μg/ml), and treated with individually separated damulin B with different concentrations (1, 5, and 10 μg/ml), for 2 hours. The increased extent of the phosphorylation of a threonine residue at (Thr)-172 of AMPK α subunit, and a serine residue at Ser-79 of an ACC enzyme protein was analyzed through western blot analysis according to the method of Hwang, et al. (Biochem. Biophys. Res. Commun. 371, 289-293, 2008). […] Also, both damulin A and damulin B were determined to be active ingredients which phosphorylate and activate AMPK, and phosphorylate and inactivate ACC. […]

[3] = tested on: L6 myotube cells; test: β-oxidation of fatty acid in L6 myotube cells
Procedure: When AMPK is activated, the activity of ACC is reduced, thereby reducing the concentration of malonyl-CoA within mitochondria. This accelerates the transport of fatty acid into mitochondria, and thereby increases β-oxidation. Thus, due to the reduction of body fat, an obesity inhibiting effect can be achieved. Cultured L6 myotube cells were treated with purely separated damulin A and damulin B, and the improving effect on β-oxidation of fatty acid was analyzed by the method of Hwang, et al. (Biochem. Biophys. Res. Commun. 377, 1253-1258).
As a result, it was observed that damulin A (30 μg/ml) and damulin B (5 μg/ml) increased β-oxidation of fatty acid 1.8 times and 2.6 times (see FIG. 5).

[4] = tested on: L6 myotube cells; test: 2-DG (glucose) absorption into L6 myotube cells
Text: It is well known that the activation of AMPK also increases the glucose absorption into cells, and thus causes a blood glucose level reducing effect (Hardie, et al., FEBS Lett. 546, 113-120, 2003; Carling, et al., Trends. Biochem. Sci. 29, 18-24, 2004; Kahn, et al., Cell Metab. 1, 15-25, 2005; Cool, et al., Cell Metab. 3. 403-416, 2006; Lee et al., Diabetes, 55, 2256-2264, 2006; Hwang et al., Biochem. Biophys. Res. Commun. 371, 289-293, 2008). Accordingly, the treatment of damulin A and damulin B on L6 myotube cells was carried out to determine the influence on the glucose absorption into cells.
To cultured L6 myotube cells, high concentration glucose was added together with 2-DG (2-deoxy-[3H]D-glucose) (a radioactive isotope that is not decomposed within a cell) according to the method of Hwang et al. (Biochem. Biophys. Res. Commun. 377, 1253-1258), and then the accelerated extent of 2-DG absorption into cells by damulin A (30 μg/ml) and damulin B (5 μg/ml) was analyzed. As a result, in the damulin A-treated cells, the capability of absorbing glucose was increased by 42% on the average, and in the damulin B-treated cells, the capability was increased by about 79% (see FIG. 6). Therefore, based on the result, both damulin A and damulin B are determined to have a high anti-diabetes effect by decreasing blood glucose level.

Row | Compound | phosphorylation of threonine residue (Thr)-172 of AMPK α subunit [1] | phosphorylation of serine residue Ser-79 of ACC [2] | increase of β-oxidation of fatty acid ([3]; 30 μg/ml) | increase of capability of absorbing glucose (2-DG absorption into cells) ([4]; 30 μg/ml) | increase of β-oxidation of fatty acid ([3]; 5 μg/ml) | increase of capability of absorbing glucose (2-DG absorption into cells) ([4]; 5 μg/ml)
1 | CC(C)=CC/C=C(/C)[C@H]1CC[C@]2(C)C1[C@H](O)CC1[C@@]3(C)C[C@@H](O)[C@H](OC4OC(CO)[C@@H](O)[C@H](O)[C@@H]4OC4OC(CO)[C@@H](O)[C@H](O)[C@@H]4O)C(C)(C)C3CC[C@]12C (stereo partly drawn) [damulin A, 2α,3β,12β-trihydroxydammar-20(22)-E,24-diene-3-O-[β-D-glucopyranosyl-(1→)-β-D-glucopyranoside]] | concentration-dependently increased the phosphorylation | concentration-dependently increased the phosphorylation | 1.8 times | 42% | – | –
2 | C=C(CCC=C(C)C)[C@H]1CC[C@]2(C)C1[C@H](O)CC1[C@@]3(C)C[C@@H](O)[C@H](OC4OC(CO)[C@@H](O)[C@H](O)[C@@H]4OC4OC(CO)[C@@H](O)[C@H](O)[C@@H]4O)C(C)(C)C3CC[C@]12C (stereo partly drawn) [damulin B, 2α,3β,12β-trihydroxydammara-20,24-diene-3-O-[β-D-glucopyranosyl-(1→)-β-D-glucopyranoside]] | concentration-dependently increased the phosphorylation | concentration-dependently increased the phosphorylation | – | – | 2.6 times | about 79%

— patent US8357786B2, “Method for preparing Gynostemma pentaphyllum extract with increasing damulin A and damulin B contents, and pharmaceutical compositions of the same for treating metabolic disease” (TG Biotech Co., Ltd., priority 2009, dated 2013)
